# Active and inactive are the calls of the source. The calls are words filed in the database; no cut-off is given here.
# What was measured:
# [1] = biological target: T1, PPAR delta/gamma (Homo sapiens) (UniProt P37231+Q03181); assay: Activation of […] in human HaCaT cells assessed as induction of ANGPTL4 expression by PCR; format: cell-based
# [2] = biological target: T1, PPAR delta/gamma (Homo sapiens); assay: Activation of […] in human HaCaT cells assessed as inhibition of cellular proliferation at 10 uM after 72 hrs; format: cell-based
# T1 sequence (P37231 whole entry, looked up): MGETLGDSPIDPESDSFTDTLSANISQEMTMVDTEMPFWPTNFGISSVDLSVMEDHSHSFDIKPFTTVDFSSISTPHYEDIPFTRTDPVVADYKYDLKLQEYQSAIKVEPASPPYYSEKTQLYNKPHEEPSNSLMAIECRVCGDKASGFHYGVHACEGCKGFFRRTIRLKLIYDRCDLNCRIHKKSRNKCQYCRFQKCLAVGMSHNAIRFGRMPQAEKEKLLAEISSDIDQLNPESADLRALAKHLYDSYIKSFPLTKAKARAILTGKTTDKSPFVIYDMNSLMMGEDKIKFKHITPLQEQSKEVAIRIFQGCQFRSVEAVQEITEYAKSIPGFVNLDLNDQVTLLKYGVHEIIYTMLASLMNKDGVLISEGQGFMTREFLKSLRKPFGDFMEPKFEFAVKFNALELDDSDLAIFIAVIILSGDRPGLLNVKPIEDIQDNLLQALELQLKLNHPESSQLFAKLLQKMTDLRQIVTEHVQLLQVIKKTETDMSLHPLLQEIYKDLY
# T1 sequence (Q03181 whole entry, looked up): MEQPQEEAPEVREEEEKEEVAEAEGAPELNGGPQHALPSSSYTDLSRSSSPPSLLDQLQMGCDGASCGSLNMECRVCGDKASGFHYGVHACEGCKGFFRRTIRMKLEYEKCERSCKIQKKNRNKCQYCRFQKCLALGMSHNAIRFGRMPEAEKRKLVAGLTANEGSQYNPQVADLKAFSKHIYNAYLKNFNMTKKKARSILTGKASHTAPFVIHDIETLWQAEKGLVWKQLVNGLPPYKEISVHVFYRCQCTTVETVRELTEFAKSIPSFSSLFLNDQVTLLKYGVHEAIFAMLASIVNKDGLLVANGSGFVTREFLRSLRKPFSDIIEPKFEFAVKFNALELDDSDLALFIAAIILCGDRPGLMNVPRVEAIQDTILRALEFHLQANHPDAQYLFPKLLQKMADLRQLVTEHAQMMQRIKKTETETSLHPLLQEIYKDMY
smiles,measurement,setting,value
Cc1cc([Se]Cc2sc(-c3ccc(C(F)(F)F)cc3)nc2C)ccc1OCC(=O)O,Activity,[1],Active
same,Activity,[2],Active

# — ChEMBL document CHEMBL1177826, “Synthesis of isosteric selenium analog of the PPARbeta/delta agonist GW501516 and comparison of biological activity” (Bioorg Med Chem Lett, 2010)
